Results from patent US10086034B2, “Compositions and methods for inducing urinary voiding and defecation” (Dignify Therapeutics, LLC, priority 2013, dated 2018).
Entries after “also recorded” stand apart in the source; their conditions may differ. Where no end group is shown, it is not given here. [ ]: non-standard residue; d: D form. βAla = NCCC(=O)O

Tests used:
[1] = test system: Beagle dogs; assay: Adverse events after a high i.v. dose of NK2R agonist in beagle dogs; assay type: in vivo; conditions: 150 ug/kg intravenous, stated in Example 10 (present tense methods)
Description: General: Beagle dogs (6-11 kg, purpose-bred and experimentally naïve) are housed at an AAALAC approved facility in cages (1/cage) with access to water and food. A butterfly intravenous catheter is inserted into a vein (e.g. radial or saphenous). All animal activities are performed in compliance with USDA guidelines. Animals are monitored for 5 days prior to dosing to ensure adequate health.
Treatments and Dosing: Animals are administered a dose of an NK2R agonist that produces observed adverse events. […] Adverse events are commonly quantified by measuring the number of events and the duration of each event occurring during “1 minute time bins” after NK2R agonist administration to create a time histogram of events. When voiding has stopped, a NK2R antagonist is administered intravenously. Efficacy of the NK2R antagonist is obtained by measuring the reduction in the number and duration of adverse events.

[2] = test system: bladder of anesthetized acutely spinalized female rats; assay: Bladder contractility: isovolumetric bladder pressure recording in anesthetized acutely spinalized rats; assay type: in vivo, Sprague Dawley rats; conditions: for effect of antagonist pre-administration on DTI-100 induced increase in bladder pressure: antagonist 1 mg/kg, DTI-100 10 μg/kg i.v., paired t-test, N=4; for bladder pressure (peak pressure response): increasing i.v. doses, acutely spinalized anesthetized female rats
Description: (§1) General: In vivo studies were performed in anesthetized, acutely spinalized (T9-10 level) rats (N=37) or spinally intact (N=3) rats. Adult female Sprague Dawley rats (Charles River, N.C.; 250-300 g) were housed at an AAALAC approved facility in cages (3/cage) with free access to water and food in a colony room that was maintained on a 12 hr/12 hr light/dark cycle 1-2 weeks before the experiment. Rats were anesthetized with urethane (1.2-1.4 g/kg subcutaneous injection). Surgical procedures were then performed with the addition of isoflurane anesthesia (0.05-1.5% in O2) as the full anesthetic effect of urethane takes about 1-2 hrs.
A catheter filled with heparinized saline (50 unit/ml) was inserted into the carotid artery and connected to a pressure transducer for measurement of blood pressure and heart rate. A catheter was inserted into the jugular vein for intravenous (i.v.) administration of drugs. In order to transect the spinal cord, the skin and muscle on the dorsal side at the level of the lower thoracic vertebrae were incised, and the spinal cord was carefully exposed by a laminectomy and transected at the T8-T10 spinal level. Gelfoam was placed at the incision site and the muscle and skin overlying the vertebrae were closed with wound clips. The spinal cord was cut at least 60 min before starting the experimental protocol.
Bladder Contractility: For isovolumetric recordings of bladder pressure a saline-filled polyethylene tubing with a flared tip (PE 50®) catheter was inserted into the bladder and secured in place at the dome. This catheter was used to slowly infuse saline (0.2-0.3 ml/min by an infusion pump (PHD2000 infusion, Harvard Apparatus, Holliston, Mass.) to determine the bladder capacity. The bladder capacity was determined as the volume necessary to fill the bladder to the leak point pressure (i.e. volume required to produce voiding). The bladder was then emptied, the external urethra occluded and the bladder filled to 70% capacity. This method produced a stable baseline pressure in which drug induced changes in bladder contractility could be measured. Peak pressure responses, time to peak, and time to return to near baseline values (within 5 mmHg of baseline; i.e. duration of action) after vehicle and drug administration were measured.
Dosing: Responses to saline i.v. were given to ensure stable baseline pressures and lack of response to saline (vehicle control for DTI-100) at the start of each protocol and periodical throughout the experiment. DTI-100 was given in dose range of 0.01-100 μg/kg. The NK1R antagonist, Spantide I (solubilized in saline) and NK2R antagonist GR159897 (solubilized at 50 mM in DMSO and then diluted in saline) were given at a 1 mg/kg dose. Neurokinin A (NKA) and (betaAla8)NKA(4-10) were given at doses 1-100 μg/kg. Additional routes of drug administration explored included, intramuscular, subcutaneous, and sublingual. [Lys5,MeLeu9,Nle10]-NKA(4-10) (SEQ ID NO: 1) or “DTI-100”, Spantide I, GR159897, Neurokinin A, and (BetaAla8)NKA(4-10) were obtained from TOCRIS R&D SYSTEMS, Inc. (Minneapolis, Minn.).
Data analysis: Data were examined qualitatively and quantitatively. The mean, standard deviation and standard error of the mean were calculated using MICROSOFT EXCEL. One way ANOVA tests were performed with PRISM 5 for WINDOWS (Graphpad Software, Inc., La Jolla, Calif.) and unpaired and paired t-tests were performed in EXCEL. P<0.05 was considered as statistically significant.

[3] = test system: colorectum of anesthetized acutely spinalized female rats; assay: Colorectal contractility: balloon catheter colorectal pressure in anesthetized rats; assay type: in vivo, Sprague Dawley rats; conditions: antagonist 1 mg/kg i.v.; DTI-100 10 μg/kg given 5 min later
Description: as §1, with “hrs. […]” for “hrs.”
Colorectal Contractility: Colorectal pressures were measured via a latex balloon catheter (length 3-5 cm) inserted (˜4 cm) into the distal rectal/colon region. […] This allowed drug induced changes in colorectal pressure to be monitored. Parameters measured include peak colorectal pressure response, duration of time above baseline activity (in the 1st 5 min after drug administration), area under the curve (measured during the 1st 5 min after drug administration) and the number of contractile events after vehicle and drug administration. […]
Data analysis: Data were examined qualitatively and quantitatively. The mean, standard deviation and standard error of the mean were calculated using MICROSOFT EXCEL. […]

Row | Molecule | effect of antagonist pre-administration on DTI-100 induced increase in bladder pressure [2] | effect of antagonist pre-administration on DTI-100 induced increase in colorectal activity [3] | bladder pressure (peak pressure response) [2] | further results
1 | CCCC[C@H](NC(=O)[C@H](CC(C)C)N(C)C(=O)CNC(=O)[C@@H](NC(=O)[C@H](Cc1ccccc1)NC(=O)[C@H](CCCCN)NC(=O)[C@@H](N)CC(=O)O)C(C)C)C(N)=O [DTI-100, [Lys5,MeLeu9,Nle10]-NKA(4-10)] | – | – | – | duration of adverse events [1]: approximately 15 minutes; adverse events observed ([1]; within minutes after voiding and defecation): retching, emesis, panting, and vocalization
2 | COC1(C[S@@+]([O-])c2ccccc2)CCN(CCc2c[nH]c3ccc(F)cc23)CC1 [GR159897] | significantly blocked the bladder pressure increase to DTI-100 | significantly blocked the bladder pressure increase produced by DTI-100 | – | –
3 | Asp-Ser-Phe-Val-β-Ala-Leu-Met-NH2 (DSFV[βAla]LM-NH2) [(betaAla8)NKA(4-10), peptide agonist for NK2R] | – | – | produce increases in bladder pressure | –
4 | His-Lys-Thr-Asp-Ser-Phe-Val-Gly-Leu-Met-NH2 (HKTDSFVGLM-NH2) [NKA, neuropeptide neurokininA, peptide agonist for NK2R] | – | – | produce increases in bladder pressure | time to peak bladder pressure response ([2]; i.v., all doses studied): ≤ 60 s; bladder pressure ([2]; intramuscular, subcutaneous and sublingual injections, DTI-100 10-100 μg/kg, NKA 5-100 μg/kg): showed an increase in bladder pressure
5 | Spantide I | did not reduce the effect of DTI-100 on bladder pressure; also recorded: the same before (Before) and after (After) administration | did not reduce the effect of DTI-100 on colorectal activity | – | –
